Patent US20230219965A1 (KSQ Therapeutics, Inc., priority 2020, published 2023)

Biological target: USP1/UAF1 enzyme (Homo sapiens, UniProt O94782)
Assay: USP1/UAF1 deubiquitination assay (ubiquitin-rhodamine 110 substrate)
Assay type: biochemical
Conditions: read-out: USP1 IC50 (Ub-Rho)
Procedure: Certain Compounds of the Disclosure were assessed for USP1/UAF1 activity in a Ubiquitin Rhodamine assay modified from those described previously.
Deubiquitinase activity was measured using ubiquitin-rhodamine 110 as a substrate. Cleavage of the amide bond between rhodamine and the c-terminal glycine of ubiquitin yields an increase in fluorescence signal. The assay was conducted in 20 μl total volume of assay buffer (50 mM Tris-HCl, pH 7.8, 0.5 mM EDTA, 0.01% Bovine Serum Albumin, 1 mM DTT, 0.01% Tween-20), and 0.05 nM USP1/UAF1 enzyme. Reaction was initiated by addition of 150 nM Ubiquitin-rhodamine (Boston Biochem) substrate.
Compounds of the Disclosure, dissolved in DMSO were tested in dose response format, beginning at […].
The example compounds listed below were added to enzyme/assay buffer mix and incubated 10 min. Substrate mix was added, and reaction mix was read in kinetic mode for 30 min at Ex480/Em540 and IC50 response curves were plotted.
Data for all assay formats was calculated as percent inhibition compared with control wells. Percent inhibition was calculated using the following equation: % inhibition=100×[1−(X−min)/(max−min)], where X is the raw data readout, min is the average of the no enzyme control wells (n=32), max is the average of the DMSO control well (n=32). IC50 values were calculated using the standard four parameter curve fitting algorithm in either Prism GraphPad (La Jolla, Calif.) software, or Collaborative Drug Discovery (Burlingame, Calif.) CDD Vault. See Chem. Biol. 20(1): 55-62 (Jan. 24, 2013); Bioorg. Med. Chem. Lett. 23(20): 5660-5666 (Oct. 15, 2013).

Chain of USP1/UAF1 enzyme (O94782 whole entry): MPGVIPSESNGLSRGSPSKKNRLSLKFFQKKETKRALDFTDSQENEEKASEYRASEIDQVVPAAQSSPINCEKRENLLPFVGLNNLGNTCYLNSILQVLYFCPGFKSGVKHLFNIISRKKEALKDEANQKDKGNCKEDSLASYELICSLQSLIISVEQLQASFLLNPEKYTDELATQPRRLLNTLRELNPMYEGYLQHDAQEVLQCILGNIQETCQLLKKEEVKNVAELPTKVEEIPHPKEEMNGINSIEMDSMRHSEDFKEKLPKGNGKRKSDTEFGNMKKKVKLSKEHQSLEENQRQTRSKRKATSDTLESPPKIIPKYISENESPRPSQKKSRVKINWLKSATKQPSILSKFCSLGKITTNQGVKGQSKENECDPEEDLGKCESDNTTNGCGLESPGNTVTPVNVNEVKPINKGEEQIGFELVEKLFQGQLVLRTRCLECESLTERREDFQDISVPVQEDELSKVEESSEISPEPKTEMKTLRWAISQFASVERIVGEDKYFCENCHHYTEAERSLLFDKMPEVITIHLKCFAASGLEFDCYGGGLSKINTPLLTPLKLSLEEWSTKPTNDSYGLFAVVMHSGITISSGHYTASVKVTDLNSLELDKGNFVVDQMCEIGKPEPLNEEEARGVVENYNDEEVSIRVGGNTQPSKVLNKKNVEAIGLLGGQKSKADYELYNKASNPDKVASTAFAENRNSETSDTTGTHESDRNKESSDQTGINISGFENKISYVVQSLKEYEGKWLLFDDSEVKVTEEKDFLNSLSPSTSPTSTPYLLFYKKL
Chain of USP1/UAF1 enzyme (Q8TAF3 whole entry partner): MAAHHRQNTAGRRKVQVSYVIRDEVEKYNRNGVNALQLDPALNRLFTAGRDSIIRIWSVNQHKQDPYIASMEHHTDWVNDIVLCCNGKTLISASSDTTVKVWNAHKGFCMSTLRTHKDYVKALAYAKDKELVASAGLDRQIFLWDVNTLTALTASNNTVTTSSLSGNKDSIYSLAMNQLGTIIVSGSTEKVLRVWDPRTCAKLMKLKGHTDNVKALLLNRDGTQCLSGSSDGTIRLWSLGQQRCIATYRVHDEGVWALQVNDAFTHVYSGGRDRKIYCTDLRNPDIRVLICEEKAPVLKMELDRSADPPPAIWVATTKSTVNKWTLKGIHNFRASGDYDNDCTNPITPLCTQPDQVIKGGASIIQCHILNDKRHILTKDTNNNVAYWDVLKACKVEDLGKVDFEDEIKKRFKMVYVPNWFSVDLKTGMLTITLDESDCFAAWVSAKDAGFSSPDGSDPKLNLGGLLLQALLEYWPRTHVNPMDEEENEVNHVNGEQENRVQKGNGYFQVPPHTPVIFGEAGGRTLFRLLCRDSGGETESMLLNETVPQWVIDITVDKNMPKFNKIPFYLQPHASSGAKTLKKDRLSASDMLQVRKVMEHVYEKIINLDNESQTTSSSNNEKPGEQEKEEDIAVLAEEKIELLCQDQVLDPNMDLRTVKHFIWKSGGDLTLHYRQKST

SMILES	IC50 [nM]
COc1cccnc1-c1ccc(N[C@@H]2CCCn3nc(-c4c(OC)ncnc4C4CC4)cc32)cc1F (single isomer, unassigned) [Example 251]	> 500
COc1cccnc1-c1ccc(N[C@H]2CCCn3nc(-c4c(OC)ncnc4C4CC4)cc32)cc1F (single isomer, unassigned) [Example 252]	100 to 500
COc1cccnc1-c1ccc(N[C@@H]2CCCn3nc(-c4c(OC)ncnc4C4CC4)cc32)cc1Cl (single isomer, unassigned) [Example 253]	100 to 500
COc1cccnc1-c1ccc(N[C@H]2CCCn3nc(-c4c(OC)ncnc4C4CC4)cc32)cc1Cl (single isomer, unassigned) [Example 254]	100 to 500
COc1ncnc(C2CC2)c1-c1cc2n(n1)CCC(=O)N2C(C)c1ccc(-c2nc(C(F)(F)F)cn2C)cc1 (stereo not drawn) [Example 3, 2-(4-cyclopropyl-6-methoxypyrimidin-5-yl)-4-(1-(4-(1-methyl-4-(trifluoromethyl)-1H-imidazol-2-yl)phenyl)ethyl)-6,7-dihy dropyrazolo[1,5-a]pyrimidin-5(4H)-one]	100 to 500
CCn1cc(C(F)(F)F)nc1-c1ccc(CN2C(=O)CCn3nc(-c4c(OC)ncnc4OC)cc32)cc1 [Example 5, 2-(4,6-dimethoxypyrimidin-5-yl)-4-(4-(1-ethyl-4-(trifluoromethyl)-1H-imidazol-2-yl)benzyl)-6,7-dihydropyrazolo[1,5-a]pyrimidin-5(4H)-one]	100 to 500
CCn1nc(-c2ccc(CN3C(=O)CCn4nc(-c5c(C)cnn5C(C)C)cc43)cc2)nc1C(F)(F)F [Example 15, 4-(4-(1-ethyl-5-(trifluoromethyl)-1H-1,2,4-triazol-3-yl)benzyl)-2-(1-isopropyl-4-methyl-1H-pyrazol-5-yl)-6,7-dihydropyrazolo[1,5-a]pyrimidin-5(4H)-one]	> 500
CCn1ncc(Cl)c1-c1cc2n(n1)CCC(=O)N2Cc1ccc(-c2nc(C(F)(F)F)cn2C)c(F)c1 [Example 17, 2-(4-chloro-1-ethyl-1H-pyrazol-5-yl)-4-(3-fluoro-4-(1-methyl-4-(trifluoromethyl)-1H-imidazol-2-yl)benzyl)-6,7-dihydropyrazolo[1,5-a]pyrimidin-5(4H)-one]	< 100
CC(C)n1ncc(F)c1-c1cc2n(n1)CCC(=O)N2Cc1ccc(-c2nc(C(F)(F)F)cn2C)c(F)c1 [Example 21, 2-(4-fluoro-1-isopropyl-1H-pyrazol-5-yl)-4-(3-fluoro-4-(1-methyl-4-(trifluoromethyl)-1H-imidazol-2-yl)benzyl)-6,7-dihydropyrazolo[1,5-a]pyrimidin-5(4H)-one]	100 to 500
CCn1cc(C(F)(F)F)nc1-c1ccc(CN2C(=O)CCn3nc(-c4cccc5c4N(C)CC5)cc32)cc1 [Example 23, 4-(4-(1-ethyl-4-(trifluoromethyl)-1H-imidazol-2-yl)benzyl)-2-(1-methylindolin-7-yl)-6,7-dihydropyrazolo[1,5-a]pyrimidin-5(4H)-one]	100 to 500
COc1ncnc(C)c1-c1cc2n(n1)CCCN2Cc1ccc(-n2nc(C(F)(F)F)cc2C)cc1 [Example 26]	100 to 500
CCn1cc(C(F)(F)F)nc1-c1ccc(CN2C(=O)CCn3nc(-c4c(OC)cnn4C(C)C)nc32)cc1 [Example 45]	> 500
COc1ncnc(C2CC2)c1-c1cc2n(n1)CCC(=O)N2Cc1ccc(-c2nc(C(F)(F)F)c[nH]2)cc1 [Example 69, 2-(4-cyclopropyl-6-methoxypyrimidin-5-yl)-4-(4-(4-(trifluoromethyl)-1H-imidazol-2-yl)benzyl)-6,7-dihydropyrazolo[1,5-α]pyrimidin-5(4H)-one]	100 to 500
COc1ncnc(C2CC2)c1-c1cc2n(n1)CC(C)(C)C(=O)N2Cc1ccc(-c2nc(C(F)(F)F)cn2C)cc1 [Example 76, 2-(4-cyclopropyl-6-methoxypyrimidin-5-yl)-6,6-dimethyl-4-(4-(1-methyl-4-(trifluoromethyl)-1H-imidazol-2-yl)benzyl)-6,7-dihydropyrazolo[1,5-α]pyrimidin-5(4H)-one]	100 to 500
COc1ncnc(C2CC2)c1-c1cc2n(n1)CCC(=O)N2Cc1ccc(-c2nc(C(F)(F)F)cn2CCF)cc1 [Example 81]	< 100
CC(C)n1ncc(Cl)c1-c1cc2n(n1)CCC(=O)N2Cc1ccc(-c2nc(C(F)(F)F)cn2C)nc1 [Example 82]	100 to 500
COc1ncnc(C2CC2)c1-c1cc2n(n1)CCC(=O)N2Cc1ccc(-c2nc(C(F)(F)F)cn2C)nc1 [Example 83]	> 500
CCn1nc(C(F)(F)F)nc1-c1ccc(CN2C(=O)CCn3nc(-c4c(Cl)cnn4C(C)C)cc32)cc1 [Example 84]	100 to 500
CCn1cc(C(F)(F)F)nc1-c1ccc(CN2C(=O)CCn3nc(-c4c(F)cnn4C(C)C)cc32)cc1 [Example 85]	100 to 500
CCn1nc(C(F)(F)F)nc1-c1ccc(CN2C(=O)CCn3nc(-c4c(OC)ncnc4C4CC4)cc32)cc1 [Example 87]	> 500
COc1ncnc(C2CC2)c1-c1cc2n(n1)CCC(=O)N2Cc1ccc(-n2nc(C)cc2C(F)(F)F)c(F)c1 [Example 88]	100 to 500
COc1cc(C(F)(F)F)nn1-c1ccc(CN2C(=O)CCn3nc(-c4c(Cl)cnn4C(C)C)cc32)cn1 [Example 89]	< 100
COc1ncnc(C2CC2)c1-c1cc2n(n1)CCC(=O)N2Cc1ccc(-c2nn(C)cc2C)cc1 [Example 90]	> 500
Cc1cc(C(F)(F)F)n(-c2ccc(CN3C(=O)CCn4nc(-c5c(Cl)cnn5C(C)C)cc43)cc2F)n1 [Example 92]	> 500

SMILES	IC50 [nM]
COc1ncnc(C2CC2)c1-c1cc2n(n1)CCC(=O)N2Cc1ccc(-n2nc(C(F)(F)F)cc2OC)nc1 [Example 94]	100 to 500
CC(C)n1ncc(Cl)c1-c1cc2n(n1)CCC(=O)N2Cc1ccc(-c2ccn(C)n2)cc1 [Example 95]	100 to 500
COCc1cc(C(F)(F)F)nn1-c1ccc(CN2C(=O)CCn3nc(-c4c(OC)ncnc4C4CC4)cc32)cc1 [Example 99]	100 to 500
CC(C)n1ncc(Cl)c1-c1cc2n(n1)CCC(=O)N2Cc1ccc(-c2nc(C(F)(F)F)n(C)n2)cc1 [Example 101]	100 to 500
CC(C)n1ncc(Cl)c1-c1cc2n(n1)CCC(=O)N2Cc1ccc(-c2nc(C(F)(F)F)nn2C)cc1 [Example 102]	100 to 500
CCn1cc(C(F)(F)F)nc1-c1ccc(CN2C(=O)CCn3nc(-c4c(OC)ncnc4C4CC4)cc32)cn1 [Example 105]	100 to 500
COc1ncnc(C2CC2)c1-c1cc2n(n1)CCC(=O)N2Cc1ccc(-n2nc(C#N)cc2OC)cc1 [Example 107]	100 to 500
CC(c1ccc(F)cc1)N1C(=O)CCn2nc(-c3c(Cl)cnn3C(C)C)cc21 (stereo not drawn) [Example 110]	100 to 500
COc1ccnn1-c1ccc(CN2C(=O)CCn3nc(-c4c(Cl)cnn4C(C)C)cc32)cc1 [Example 117]	100 to 500
CCn1cc(C(F)(F)F)nc1-c1cc2c(cc1F)C(N1C(=O)CCn3nc(-c4c(Cl)cnn4C(C)C)cc31)CC2 (stereo not drawn) [Example 121]	100 to 500
CCn1cc(C)nc1-c1ccc(CN2C(=O)CCn3nc(-c4c(Cl)cnn4C(C)C)cc32)cc1 [Example 134]	100 to 500
CCn1cc(C(F)(F)F)nc1-c1ccc(CN2C(=O)CCn3nc(-c4c(OC)ncnc4C4CC4)cc32)cc1OC [Example 136]	100 to 500
CCn1cc(C(F)(F)F)nc1-c1ccc(CN2C(=O)CCn3nc(-c4c(OC)ncnc4C4CC4)cc32)nc1 [Example 137]	100 to 500
COc1ncnc(C2(C)CC2)c1-c1cc2n(n1)CCC(=O)N2Cc1ccc(-c2nc(C(F)(F)F)cn2C)c(F)c1 [Example 149, 4-(3-fluoro-4-(1-methyl-4-(trifluoromethyl)-1H-imidazol-2-yl)benzyl)-2-(4-methoxy-6-(1-methylcyclopropyl)pyrimidin-5-yl)-6,7-dihydropyrazolo[1,5-α]pyrimidin-5(4H)-one]	100 to 500
CCn1cc(C(F)(F)F)nc1-c1ccc(CN2C(=O)CCn3nc(-c4c(Cl)cnn4C4CCOC4)cc32)cc1 (stereo not drawn) [Example 150]	100 to 500
COc1cnn(C(C)C)c1-c1cc2n(n1)CCC(=O)N2Cc1ccc(-c2nc(C(F)(F)F)cn2C(C)C)cc1 [Example 152]	100 to 500
CCn1cc(C(F)(F)F)nc1-c1ccc(CN2C(=O)CCn3nc(-c4c(OC)cnn4C(C)C)cc32)cc1 [Example 155]	100 to 500
CCn1cc(C(F)(F)F)nc1-c1ccc(CN2C(=O)CCn3nc(-c4c(C(C)(C)C)cnn4C)cc32)cc1 [Example 157]	100 to 500
CCn1cc(C(F)(F)F)nc1-c1ccc(CN2C(=O)CCn3nc(-c4c(C(C)C)cnn4C)cc32)cc1 [Example 158]	> 500
CCn1cc(C(F)(F)F)nc1-c1ccc(CN2C(=O)CCn3nc(-c4c(C5CC5)cnn4C(C)C)cc32)cc1 [Example 161]	100 to 500
CCn1cc(C(F)(F)F)nc1-c1ccc(CN2C(=O)CCn3nc(-c4c(Cl)cnn4CCO)cc32)cc1F [Example 163]	100 to 500
CCn1cc(C(F)(F)F)nc1-c1ccc(CN2C(=O)CCn3nc(-c4c(OC)ncnc4C4CC4)nc32)cc1OC [Example 185]	100 to 500
CCn1cc(C(F)(F)F)nc1-c1ccc(CN2C(=O)CCn3nc(-c4c(OC)ncnc4C4CC4)nc32)cc1OC(F)F [Example 192]	100 to 500
CCn1cc(C#N)nc1-c1ccc([C@H](C)N2C(=O)CCn3nc(-c4c(OC)ncnc4C4CC4)nc32)cc1 [Example 198]	> 500
